Data reported in US20240173329A1, “BELVARAFENIB FOR USE IN TREATMENT OF BRAIN CANCERS” (Genentech, Inc., priority 2021, published 2024).

Experiments:
[1] = biological target: colony stimulating factor 1 receptor (CSF1R) (Homo sapiens, UniProt P07333); experiment: panel of 189 kinase assays; assay type: biochemical
[2] = Phase I relative bioavailability and food effect study in healthy subjects; assay type: in vivo; conditions: 200 mg single dose
Experimental: In another Phase I, single dose, randomized, crossover relative bioavailability and food effect study in healthy subjects, the influence of a formulation change from the Phase I to Phase II tablet on belvarafenib exposure was evaluated. A total of 18 healthy subjects were enrolled in the study and received the following randomized treatments: one 150-mg and one 50-mg Phase I tablet in a fed state, two 100-mg Phase II tablets in a fed state, or two 100-mg Phase II tablets in a fasted state, with an 18-day washout between treatments. There was a positive effect of food on belvarafenib exposure in the fed state compared to the fasted state.

Chain of colony stimulating factor 1 receptor (CSF1R) (P07333 20-972, species assumed): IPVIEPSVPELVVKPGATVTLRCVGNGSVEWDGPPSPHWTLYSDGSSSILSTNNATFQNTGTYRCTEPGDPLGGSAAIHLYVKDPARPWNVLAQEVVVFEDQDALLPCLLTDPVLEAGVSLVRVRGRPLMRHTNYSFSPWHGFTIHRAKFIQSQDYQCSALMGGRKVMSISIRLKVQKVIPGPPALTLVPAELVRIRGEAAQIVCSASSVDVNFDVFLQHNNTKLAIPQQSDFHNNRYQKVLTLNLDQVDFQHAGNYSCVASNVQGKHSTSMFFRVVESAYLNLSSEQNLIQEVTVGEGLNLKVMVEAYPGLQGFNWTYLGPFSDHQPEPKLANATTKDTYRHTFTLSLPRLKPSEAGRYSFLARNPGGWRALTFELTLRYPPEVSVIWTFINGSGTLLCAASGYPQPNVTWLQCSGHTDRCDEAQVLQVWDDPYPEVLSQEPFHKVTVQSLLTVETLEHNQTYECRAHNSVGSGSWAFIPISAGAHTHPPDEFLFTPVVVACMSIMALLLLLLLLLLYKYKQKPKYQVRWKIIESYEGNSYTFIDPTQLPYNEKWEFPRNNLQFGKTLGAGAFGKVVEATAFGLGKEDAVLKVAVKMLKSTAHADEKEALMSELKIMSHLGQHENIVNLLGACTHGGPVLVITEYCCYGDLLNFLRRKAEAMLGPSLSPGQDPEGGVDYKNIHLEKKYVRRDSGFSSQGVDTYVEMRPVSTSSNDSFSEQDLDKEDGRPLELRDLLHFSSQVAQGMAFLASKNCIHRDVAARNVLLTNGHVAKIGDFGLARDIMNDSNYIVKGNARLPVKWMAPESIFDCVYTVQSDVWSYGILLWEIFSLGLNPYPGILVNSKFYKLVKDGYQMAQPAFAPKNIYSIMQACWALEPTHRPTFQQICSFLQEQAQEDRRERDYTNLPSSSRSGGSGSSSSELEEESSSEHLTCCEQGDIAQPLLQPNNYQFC

Structure (SMILES): Cc1ccc2c(Nc3cccc(Cl)c3F)nccc2c1NC(=O)c1csc2c(N)ncnc12 [Belvarafenib, 4-amino-N-(1-((3-chloro-2-fluorophenyl)amino)-6-methylisoquinolin-5-yl)thieno[3,2-d]pyrimidine-7-carboxamide]
- inhibition at 1 µM [1]: > 90%
- AUC0-inf increase, fed state compared to fasted state [2]: ~2.8 fold
- Cmax increase, fed state compared to fasted state [2]: approximately 2.2 fold
- adverse events [2]: No serious adverse events, adverse events of special interest, or deaths were reported
